The record followed here is US20250163104A1, “MACROCYCLIC IMMUNOMODULATORS” (priority 2021, published 2025).

The structures appear in SMILES notation. Where a SMILES comes first, the peptide text is derived from it. Bridges are numbered along the chain shown (N, C = ends). [ ]: non-standard residue; d: D form. The star is where a group is joined. ξ: configuration not given here. Bip(3'-COOH) = N[C@@H](Cc1ccc(-c2cccc(C(=O)O)c2)cc1)C(=O)O; Bip = N[C@@H](Cc1ccc(-c2ccccc2)cc1)C(=O)O; Phe(4-CN) = N#Cc1ccc(C[C@H](N)C(=O)O)cc1; Phe(2-F) = N[C@@H](Cc1ccccc1F)C(=O)O; 4Pal = N[C@@H](Cc1ccncc1)C(=O)O; 2Thi = N[C@@H](Cc1cccs1)C(=O)O; Cha = N[C@@H](CC1CCCCC1)C(=O)O; Ile(3ξ) = CCC(C)[C@H](N)C(=O)O; Carboxymethyl = O=C(O)C*; Orn = NCCC[C@H](N)C(=O)O; Dab = NCC[C@H](N)C(=O)O; Dap = NC[C@H](N)C(=O)O

One may read the IC50 as the point on the concentration scale where inhibition reaches its midpoint.

T1 sequence (Q15116 25-288): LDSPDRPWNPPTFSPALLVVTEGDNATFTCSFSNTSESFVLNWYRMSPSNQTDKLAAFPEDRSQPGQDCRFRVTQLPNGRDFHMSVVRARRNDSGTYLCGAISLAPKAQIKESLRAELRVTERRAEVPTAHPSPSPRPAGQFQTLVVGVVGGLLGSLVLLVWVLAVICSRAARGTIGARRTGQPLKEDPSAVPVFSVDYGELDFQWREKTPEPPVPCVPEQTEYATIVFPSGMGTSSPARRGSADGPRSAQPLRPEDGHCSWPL

This assay has as its target T1, human PD-1 / PD-L1-Ig binding on Jurkat cell line over-expressing human PD-1 (Jurkat-PD-1) (Homo sapiens, UniProt Q15116).
T1 construct: expressed in transfected cells; host or cells: Jurkat
The assay can be described thus: Jurkat-PD-1 Cell Binding High-Content Screening Assay (CBA). It counts as cell-based. Conditions: Jurkat-PD-1 cells, PE-labeled PD-L1-Ig 20 nM final; read-out: Jurkat HPD1_PDL1 IC50. An outline of the steps: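 PE-PD-L1-Ig 20 nM final; cells in DMEM/10% FCS; cpd pre-incubation 2 h, 37° C; ligand 1 h; PFA fix + Hoechst 33342; high-content imaging read-out.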
In the case of `CC(C)C[C@H]1NC(=O)[C@H](CCCN)NC(=O)[C@H](CCC(=O)O)NC(=O)[C@H](Cc2ccc(-c3ccccc3)cc2)NC(=O)[C@H](C(C)C)NC(=O)[C@H](Cc2cccs2)NC(=O)[C@H](CC(=O)O)NC(=O)[C@H](Cc2ccncc2)NC(=O)[C@H](Cc2ccncc2)NC(=O)CSC[C@@H](C(=O)N[C@@H](C)C(N)=O)NC(=O)[C@H]([C@@H](C)O)NC(=O)[C@H](C(C)C)NC(=O)[C@H](CC2CCCCC2)NC(=O)[C@H](CCN)NC1=O` [Compound 2203] ({CH2CO}-[4Pal][4Pal]D[2Thi]V[Bip]E[Orn][dL][Dab][Cha]VTCA-NH2; thioether N-14), the half-maximal inhibitory concentration (IC50) was 18.2 nM.

Take `CC(C)C[C@H]1NC(=O)[C@H](CCCN)NC(=O)[C@H](CCC(=O)O)NC(=O)[C@H](Cc2ccc(-c3ccccc3)cc2)NC(=O)[C@H](C(C)C)NC(=O)[C@H](Cc2cccs2)NC(=O)[C@H](CC(=O)O)NC(=O)[C@H](Cc2cccs2)NC(=O)[C@H](Cc2ccccc2)NC(=O)CSC[C@@H](C(=O)N[C@@H](C)C(N)=O)NC(=O)[C@H]([C@@H](C)O)NC(=O)[C@H](C(C)C)NC(=O)[C@H](CC2CCCCC2)NC(=O)[C@H](CCN)NC1=O` [Compound 2204] ({CH2CO}-F[2Thi]D[2Thi]V[Bip]E[Orn][dL][Dab][Cha]VTCA-NH2; thioether N-14): the IC50 amounted to 24.4 nM.

With `CC(C)C[C@H]1NC(=O)[C@H](CCCN)NC(=O)[C@H](CCC(=O)O)NC(=O)[C@H](Cc2ccc(-c3ccccc3)cc2)NC(=O)[C@H](C(C)C)NC(=O)[C@H](Cc2cccs2)NC(=O)[C@H](CC(=O)O)NC(=O)[C@H](Cc2cccs2)NC(=O)[C@H](CN)NC(=O)CSC[C@@H](C(=O)N[C@@H](C)C(N)=O)NC(=O)[C@H]([C@@H](C)O)NC(=O)[C@H](C(C)C)NC(=O)[C@H](CC2CCCCC2)NC(=O)[C@H](CCN)NC1=O` [Compound 2205] ({CH2CO}-[Dap][2Thi]D[2Thi]V[Bip]E[Orn][dL][Dab][Cha]VTCA-NH2; thioether N-14), the 50% inhibitory concentration (IC50) amounted to 18.6 nM.

Regarding `CC(C)C[C@H]1NC(=O)[C@H](CCCN)NC(=O)[C@H](CCC(=O)O)NC(=O)[C@H](Cc2ccc(-c3ccccc3)cc2)NC(=O)[C@H](C(C)C)NC(=O)[C@H](Cc2cccs2)NC(=O)[C@H](CC(=O)O)NC(=O)[C@H](Cc2cccs2)NC(=O)[C@H](Cc2ccc(OCC(=O)O)cc2)NC(=O)CSC[C@@H](C(=O)N[C@@H](C)C(N)=O)NC(=O)[C@H]([C@@H](C)O)NC(=O)[C@H](C(C)C)NC(=O)[C@H](CC2CCCCC2)NC(=O)[C@H](CCN)NC1=O` [Compound 2206] ({CH2CO}-Y(Carboxymethyl)[2Thi]D[2Thi]V[Bip]E[Orn][dL][Dab][Cha]VTCA-NH2; thioether N-14), the 50% inhibitory concentration (IC50) turned out to be 14.6 nM.

`CC(C)C[C@H]1NC(=O)[C@H](CCCN)NC(=O)[C@H](CCC(=O)O)NC(=O)[C@H](Cc2ccc(-c3ccccc3)cc2)NC(=O)[C@H](C(C)C)NC(=O)[C@H](Cc2ccccc2F)NC(=O)[C@H](CC(=O)O)NC(=O)[C@H](Cc2ccncc2)NC(=O)[C@H](CC(N)=O)NC(=O)CSC[C@@H](C(=O)N[C@@H](C)C(N)=O)NC(=O)[C@H]([C@@H](C)O)NC(=O)[C@H](C(C)C)NC(=O)[C@H](CC2CCCCC2)NC(=O)[C@H](CCN)NC1=O` [Compound 2207] ({CH2CO}-N[4Pal]D[Phe(2-F)]V[Bip]E[Orn][dL][Dab][Cha]VTCA-NH2; thioether N-14): the half-maximal inhibitory concentration (IC50) was 34.4 nM.

Turning to `CC(C)C[C@H]1NC(=O)[C@H](CCCN)NC(=O)[C@H](CCC(=O)O)NC(=O)[C@H](Cc2ccc(-c3ccccc3)cc2)NC(=O)[C@H](C(C)C)NC(=O)[C@H](Cc2ccccc2F)NC(=O)[C@H](CC(=O)O)NC(=O)[C@H](Cc2ccncc2)NC(=O)[C@H](Cc2ccccc2)NC(=O)CSC[C@@H](C(=O)N[C@@H](C)C(N)=O)NC(=O)[C@H]([C@@H](C)O)NC(=O)[C@H](C(C)C)NC(=O)[C@H](CC2CCCCC2)NC(=O)[C@H](CCN)NC1=O` [Compound 2208] ({CH2CO}-F[4Pal]D[Phe(2-F)]V[Bip]E[Orn][dL][Dab][Cha]VTCA-NH2; thioether N-14), the IC50 was determined as 30.6 nM.

`CC(C)C[C@H]1NC(=O)[C@H](CCCN)NC(=O)[C@H](CCC(=O)O)NC(=O)[C@H](Cc2ccc(-c3ccccc3)cc2)NC(=O)[C@H](C(C)C)NC(=O)[C@H](Cc2ccccc2F)NC(=O)[C@H](CC(=O)O)NC(=O)[C@H](Cc2ccncc2)NC(=O)[C@H](CN)NC(=O)CSC[C@@H](C(=O)N[C@@H](C)C(N)=O)NC(=O)[C@H]([C@@H](C)O)NC(=O)[C@H](C(C)C)NC(=O)[C@H](CC2CCCCC2)NC(=O)[C@H](CCN)NC1=O` [Compound 2209] ({CH2CO}-[Dap][4Pal]D[Phe(2-F)]V[Bip]E[Orn][dL][Dab][Cha]VTCA-NH2; thioether N-14): the half-maximal inhibitory concentration (IC50) was determined as 29.7 nM.

For `CC(C)C[C@H]1NC(=O)[C@H](CCCN)NC(=O)[C@H](CCC(=O)O)NC(=O)[C@H](Cc2ccc(-c3ccccc3)cc2)NC(=O)[C@H](C(C)C)NC(=O)[C@H](Cc2ccccc2F)NC(=O)[C@H](CC(=O)O)NC(=O)[C@H](Cc2ccncc2)NC(=O)[C@H](Cc2ccc(OCC(=O)O)cc2)NC(=O)CSC[C@@H](C(=O)N[C@@H](C)C(N)=O)NC(=O)[C@H]([C@@H](C)O)NC(=O)[C@H](C(C)C)NC(=O)[C@H](CC2CCCCC2)NC(=O)[C@H](CCN)NC1=O` [Compound 2210] ({CH2CO}-Y(Carboxymethyl)[4Pal]D[Phe(2-F)]V[Bip]E[Orn][dL][Dab][Cha]VTCA-NH2; thioether N-14), the IC50 was determined as 25.1 nM.

With `CC(C)C[C@H]1NC(=O)[C@H](CCCN)NC(=O)[C@H](CCC(=O)O)NC(=O)[C@H](Cc2ccc(-c3ccccc3)cc2)NC(=O)[C@H](C(C)C)NC(=O)[C@H](Cc2ccccc2F)NC(=O)[C@H](CC(=O)O)NC(=O)[C@H](Cc2ccncc2)NC(=O)[C@H](Cc2ccncc2)NC(=O)CSC[C@@H](C(=O)N[C@@H](C)C(N)=O)NC(=O)[C@H]([C@@H](C)O)NC(=O)[C@H](C(C)C)NC(=O)[C@H](CC2CCCCC2)NC(=O)[C@H](CCN)NC1=O` [Compound 2211] ({CH2CO}-[4Pal][4Pal]D[Phe(2-F)]V[Bip]E[Orn][dL][Dab][Cha]VTCA-NH2; thioether N-14), the IC50 stood at 20.3 nM.

With `CC(C)C[C@H]1NC(=O)[C@H](CCCN)NC(=O)[C@H](CCC(=O)O)NC(=O)[C@H](Cc2ccc(-c3ccccc3)cc2)NC(=O)[C@H](C(C)C)NC(=O)[C@H](Cc2ccccc2F)NC(=O)[C@H](CC(=O)O)NC(=O)[C@H](Cc2ccc(C#N)cc2)NC(=O)[C@H](CC(N)=O)NC(=O)CSC[C@@H](C(=O)N[C@@H](C)C(N)=O)NC(=O)[C@H]([C@@H](C)O)NC(=O)[C@H](C(C)C)NC(=O)[C@H](CC2CCCCC2)NC(=O)[C@H](CCN)NC1=O` [Compound 2212] ({CH2CO}-N[Phe(4-CN)]D[Phe(2-F)]V[Bip]E[Orn][dL][Dab][Cha]VTCA-NH2; thioether N-14), the IC50 was 37.6 nM.

In the case of `CC(C)C[C@H]1NC(=O)[C@H](CCCN)NC(=O)[C@H](CCC(=O)O)NC(=O)[C@H](Cc2ccc(-c3ccccc3)cc2)NC(=O)[C@H](C(C)C)NC(=O)[C@H](Cc2ccccc2F)NC(=O)[C@H](CC(=O)O)NC(=O)[C@H](Cc2ccc(C#N)cc2)NC(=O)[C@H](Cc2ccccc2)NC(=O)CSC[C@@H](C(=O)N[C@@H](C)C(N)=O)NC(=O)[C@H]([C@@H](C)O)NC(=O)[C@H](C(C)C)NC(=O)[C@H](CC2CCCCC2)NC(=O)[C@H](CCN)NC1=O` [Compound 2213] ({CH2CO}-F[Phe(4-CN)]D[Phe(2-F)]V[Bip]E[Orn][dL][Dab][Cha]VTCA-NH2; thioether N-14), the IC50 worked out at 59.2 nM.

On to `CC(C)C[C@H]1NC(=O)[C@H](CCCN)NC(=O)[C@H](CCC(=O)O)NC(=O)[C@H](Cc2ccc(-c3ccccc3)cc2)NC(=O)[C@H](C(C)C)NC(=O)[C@H](Cc2ccccc2F)NC(=O)[C@H](CC(=O)O)NC(=O)[C@H](Cc2ccc(C#N)cc2)NC(=O)[C@H](CN)NC(=O)CSC[C@@H](C(=O)N[C@@H](C)C(N)=O)NC(=O)[C@H]([C@@H](C)O)NC(=O)[C@H](C(C)C)NC(=O)[C@H](CC2CCCCC2)NC(=O)[C@H](CCN)NC1=O` [Compound 2214], for which the IC50 was 15.4 nM.

Consider `CC(C)C[C@H]1NC(=O)[C@H](CCCN)NC(=O)[C@H](CCC(=O)O)NC(=O)[C@H](Cc2ccc(-c3ccccc3)cc2)NC(=O)[C@H](C(C)C)NC(=O)[C@H](Cc2ccccc2F)NC(=O)[C@H](CC(=O)O)NC(=O)[C@H](Cc2ccc(C#N)cc2)NC(=O)[C@H](Cc2ccc(OCC(=O)O)cc2)NC(=O)CSC[C@@H](C(=O)N[C@@H](C)C(N)=O)NC(=O)[C@H]([C@@H](C)O)NC(=O)[C@H](C(C)C)NC(=O)[C@H](CC2CCCCC2)NC(=O)[C@H](CCN)NC1=O` [Compound 2215], for which the IC50 amounted to 30.4 nM.

In the case of `CC(C)C[C@H]1NC(=O)[C@H](CCCN)NC(=O)[C@H](CCC(=O)O)NC(=O)[C@H](Cc2ccc(-c3ccccc3)cc2)NC(=O)[C@H](C(C)C)NC(=O)[C@H](Cc2ccccc2F)NC(=O)[C@H](CC(=O)O)NC(=O)[C@H](Cc2ccc(C#N)cc2)NC(=O)[C@H](Cc2ccncc2)NC(=O)CSC[C@@H](C(=O)N[C@@H](C)C(N)=O)NC(=O)[C@H]([C@@H](C)O)NC(=O)[C@H](C(C)C)NC(=O)[C@H](CC2CCCCC2)NC(=O)[C@H](CCN)NC1=O` [Compound 2216], the concentration for half-maximal inhibition (IC50) stood at 19.3 nM.

Turning to `CCC(C)[C@@H]1NC(=O)[C@H](Cc2ccc(-c3ccccc3)cc2)NC(=O)[C@H](C(C)C)NC(=O)[C@H](Cc2c[nH]c3ccccc23)NC(=O)[C@H](CC(=O)O)NC(=O)[C@H](Cc2ccc(-c3cccc(C(=O)O)c3)cc2)NC(=O)[C@H](CC(N)=O)NC(=O)CSC[C@@H](C(=O)N[C@@H](C)C(N)=O)NC(=O)[C@H]([C@@H](C)O)NC(=O)[C@H](C(C)C)NC(=O)[C@H](CC2CCCCC2)NC(=O)[C@H](CCN)NC(=O)[C@@H](CC(C)C)NC(=O)[C@H](CCCN)NC1=O` (stereo partly drawn) [Compound 2217] ({CH2CO}-N[Bip(3'-COOH)]DWV[Bip][Ile(3ξ)][Orn][dL][Dab][Cha]VTCA-NH2; thioether N-14), the half-maximal inhibitory concentration (IC50) came out at 16.8 nM.
